In article PMC11574045, “A cofactor-induced repressive type of transcription factor condensation can be induced by synthetic peptides to suppress tumorigenesis” (The EMBO Journal, 2024):
Several values for one entry are separate records, joined by “and”; a condition that tells them apart may be missing. Equal values may be shown once. Ends that are not written are not given here.

What was measured:
TEAD4 = molecular target: T1, TEAD4 (Homo sapiens, UniProt Q15561); test: In vitro LLPS (droplet formation) assay; assay type: biochemical
T1 construct: His; made in house; host or cells: Escherichia coli BL21(DE3)
Description: LLPS was induced at room temperature by diluting proteins and NaCl to specified concentrations (20, 150, 500 mM). After subsequent mixing, 10 μl of the reaction solution were gently transferred onto a 20 mm glass-bottomed dish (NEST, 801001) for differential interference contrast (DIC) imaging performed using a Zeiss LSM 880 confocal microscope equipped with a 20× water immersion objective lens. Unless otherwise indicated (e.g., in the figure legend), the final concentration of purified protein used for in vitro LLPS assays was 40 μM.

MNU-induced GC tumors = test: MNU-induced gastric cancer mouse model; assay type: in vivo; design: Tumor area, GLUP+ / Tumor area, GLUP++: unit not given here
Description: For the model involving N-nitroso-N-methylurea (MNU)-induced GC, 8-week-old C57BL/6 mice received 3 cycles of MNU (TRC, Toronto, Canada) in drinking water. For each cycle, drinking water containing 240 μg/ml MNU was served to the mice for 1 week, and then normal drinking water the next week. After 19 weeks of MNU administration, mice were randomized to receive GLUP via intraperitoneal injection (i.p.) biweekly for the following 5 weeks (n = 8/group). After 24 weeks, mice were sacrificed for subsequent analysis. The tumor volume per stomach was measured.

[1] = system: GFP-TEAD4 condensates in HEK293FT cells; test: FRAP of TEAD4 condensates in live cells; assay type: cell-based; details: GLUP-treated HEK293FT cells
Description: For FRAP analysis, cells were seeded at a confluency of ~30% on a 35-mm glass-bottomed dish (Cellvis D35C4-20-1-N). Live cell imaging was carried out using a Leica SP8 confocal microscope (Leica, Germany) with a 63× oil immersion objective lens. A defined region with a diameter of ~1 μm was photobleached by the equipped laser at ~90% power intensity. Fluorescence intensities of the region were recorded by carrying out time-lapse live imaging with a 1.29 s interval and further quantified using Fiji ImageJ software.

SH-10-TC cells = assay type: cell-based, human; details: 48 h
Description: (§1) For cell viability assays, cells were seeded into 96-well plates overnight to attach them to the plates, and then treated with GLUP for 48 h. Cells incubated for indicated periods of time were analyzed using an ATP-based CellTiter-Lumi^TM Plus kit (Beyotime) according to the manufacturer’s instructions. The intracellular ATP contents were measured using a BioTek Synergy^TM NEO multi-detector microplate reader (Thermo). Cell viability was calculated using the equation cell viability (%) = [[value (test) − value (blank)] × [value (control) − value (blank)]] −1 × 100.

HGC-27 cells = assay type: cell-based, human
Description: as §1

BGC-823 cells = assay type: cell-based, human; details: 48 h
Description: as §1

AGS cells = assay type: cell-based, human; details: 48 h
Description: as §1

[2] = system: trypsin, actinase E, thermolysin, proteinase K, chymotrypsin-α; test: Stability of peptides treated with proteases (gel); assay type: in vitro ADME; details: 30 °C for 1 h, gel read-out
Excerpt: To improve the stability and bioavailability of glup, we subjected it to disulfide-cyclization and C-terminal amidation to generate a macrocyclic version of the peptide and denoted it as GLUP (Fig. 5D). […] However, there were no significant differences in solubility, permeability, and TEAD4-binding affinity between GLUP and glup (Fig. 5F and Appendix Figs. S5F–H). […] These droplets rapidly dissolved when exposed to increased concentrations of NaCl (Fig. 5G, right).
Appendix Figure S5. Optimization of the Linker Peptide
A. Fluorescence polarization (FP) assay to detect the interaction of purified TEAD4 protein with FA M-labeled glup. mP, millipolarization (FP values). B. Microscale […]
protein with glup or glupmut. Kd values are shown. glupmut, an interaction-dead control peptide with the sequence […]. C. Crosslinking assay of TEAD4 […]
oligomerization in the presence of glup or glupmut after DSS treatment. D. Crosslinking assay of TEAD4 oligomerization in the presence of glup or GLUP with or without DSS treatment. E. Gels assessing protein stability levels of glup and GLUP after they were treated with indicated proteases. TR, trypsin; AE, actinase E; TH, thermolysin; PK, proteinase K; CH-α, chymotrypsin-α. […]
(right). […] The data were analyzed using one-way ANOVA, followed by the Tukey’s post-hoc test. *, p < 0.05; **, […]

[3] = Toxicity analysis (blood testing, blood biochemistry, pathology); assay type: in vivo, mouse; details: BALB/c mice, GLUP 1 or 10 mg/kg i.p. every 2 days, 14 days
Description: Healthy BALB/c mice (~8 weeks, n = 5) were injected intraperitoneally with GLUP (1, 10 mg/kg, respectively, every 2 days), and mice of the control group were injected with saline (10 ml/kg, n = 5). The mice were continuously observed for 14 days after the administration and then sacrificed for routine blood testing (of white blood cells, red blood cells, platelets, lymphocytes, monocytes, and neutrophils), examination of the blood biochemistry (hemoglobin, albumin, glucose, creatinine, urea, AST, and ALT) and pathology examination.

CTGF = test: RNA-scope of CTGF in tumor tissues; assay type: in vivo, mouse; details: tumors of GLUP-treated mice
Description: RNA-scope was performed according to manufacturer’s protocols (RNAscope Red Detection Kit, ACDbio, 322360). Briefly, the tumor sections (3 μm thickness) were obtained from MNU-generated gastric tumor tissues. The sections were deparaffinized, retrieved, and then hybridized with Ctgf probes following the manufacturer’s instructions (ACD, Hayward, CA, USA). Subsequently, the signal of hybridized probes was further visualized using RED dye-labeled probes. Finally, the samples were redyed, this time with hematoxylin, and mounted with VectaMount Permanent Mounting Medium (Vector Laboratories, Burlingame, CA, USA), and photographed using a Nikon Upright Fluorescence Microscope (Nikon, Japan). Positive and negative control probes were used for each experiment to help derive conclusions from the data.

T1 sequence (Q15561 whole entry): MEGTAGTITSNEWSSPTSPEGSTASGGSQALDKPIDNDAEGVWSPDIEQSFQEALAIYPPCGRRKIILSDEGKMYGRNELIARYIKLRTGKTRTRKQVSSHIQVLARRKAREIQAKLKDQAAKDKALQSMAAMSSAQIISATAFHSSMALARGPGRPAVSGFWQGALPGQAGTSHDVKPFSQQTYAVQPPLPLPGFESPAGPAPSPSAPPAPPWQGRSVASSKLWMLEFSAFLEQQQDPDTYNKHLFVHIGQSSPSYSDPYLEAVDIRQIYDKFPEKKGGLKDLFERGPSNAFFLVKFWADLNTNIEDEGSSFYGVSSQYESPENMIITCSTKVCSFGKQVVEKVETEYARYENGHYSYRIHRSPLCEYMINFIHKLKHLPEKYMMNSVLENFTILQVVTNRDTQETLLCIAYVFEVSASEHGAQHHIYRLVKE

RRVCVHFHFSLSLR-NH2 (C-terminus assumed) [glup]
Turbidity of TEAD4 solution after GLUP (TEAD4; PEG solution, vials before and after GLUP): high turbidity in a PEG solution | TEAD4 droplet formation (TEAD4; mCherry-TEAD4 with FAM-GLUP 20, 40, 80 µM): strongly promoted TEAD4 droplet formation | Average tumor area vs control (MNU-induced GC tumors; MNU-induced GC mice, 5-week GLUP treatment): much smaller than that in control mice | Gastric mucosa histology (MNU-induced GC tumors; MNU-induced GC mice, high dose GLUP 5 mg/kg): almost normal gastric mucosa | Tumor area, GLUP+ (MNU-induced GC tumors; MNU-induced GC, C57BL/6 mice, 1 mg/kg GLUP biweekly for 5 weeks, individual mice (source data Fig 7B), 1 mg/kg): 28.125 and 40.5 and 20.5 and 4.5 and 6.5 and 16.2 | Tumor area, GLUP++ (MNU-induced GC tumors; MNU-induced GC, C57BL/6 mice, 5 mg/kg GLUP biweekly for 5 weeks, individual mice (source data Fig 7B), 5 mg/kg): 4.5 and 2.5315 and 0.5 and 0 | mobile fraction (FRAP) [1]: about 62% | IC50 (SH-10-TC cells): 26.3 µg/mL | Cell death (HGC-27 cells; HGC-27, 0.1 µg/ml GLUP, 48 h (peer review file, Figure R22C)): ~60% | Suppression of cell growth with or without YAP (5SA) overexpression (HGC-27 cells; HGC-27, 0.1/1 µg/ml GLUP (peer review file, Figure R23)): regardless of YAP (5SA) expression | IC50 (BGC-823 cells): 26.1 µg/mL | IC50 (AGS cells): 34 µg/mL | Stability towards various proteases [2]: almost completely digested | Stability towards various proteases ([2]; listed as GLUP): remained intact | Blood findings upon GLUP treatment [3]: a range of blood biochemical abnormalities e.g., in numbers of platelets and neutrophils | Expression of TEAD4 target gene CTGF in tumor tissue (CTGF): sharply decreased in a dose-dependent manner
